Results from patent publication US10457700B2, “Platinum prodrugs and methods of making and using thereof” (UNIVERSITY OF GEORGIA RESEARCH FOUNDATION, INC., priority 2015, dated 2019).

Legend:
[1] = test system: A2780/CP70 cells; experiment: MTT cytotoxicity assay in cisplatin resistant A2780/CP70 cells; type: cell-based, human; settings: 72 h
Method: (§1) Human prostate cancer cell line PC3 and DU145 were procured from the American type culture collection (ATCC). Ovarian cancer A2780 cells were obtained from Prof, Robert Brown, Imperial College London. […] Cells were passed every 3 to 4 days and restarted from frozen stocks upon reaching 20 passages.
(§2) PC3, A2780, or A2780/CP70 cells (2000 cells/well/100 μL) were seeded on a 96-well plate in 100 μL of desired medium and incubated for 24 h. After 24 h, media was removed and fresh media was added. The cells were treated with different constructs at varying concentrations and incubated for 72 h at 37° C. in 5% CO2. The cells were then treated with 20 μL of MTT (5 mg/mL in PBS) for 5 h. The medium was removed, the cells were lysed with 100 μL of DMSO, and the absorbance of the purple formazan was recorded at 550 nm using a Bio-Tek Synergy HT microplate reader. The background absorbance for each well was measured at 800 nm. Each well was performed in triplicate. […] Cells were grown for 7 days in high glucose medium prior to the MTT experiment. Cytotoxicity was expressed as mean percentage increase relative to the unexposed control±SD. Control values were set at 0% cytotoxicity or 100% cell viability.

[2] = test system: PC3 cells; experiment: MTT cytotoxicity assay in PC3 cells; type: cell-based, human
Method: as §1, §2

[3] = test system: intracellular GSH in A2780/CP70 cells; experiment: Cellular GSH assay with ThiolTracker Violet, flow cytometry; type: cell-based, human; settings: 10 μM, 12 h
Method: The ability of Platin-B to interact with intracellular GSH in A2780/CP70 cells was investigated using the ThiolTracker Violet GSH detection reagent. Specifically, A2780/CP70 cells (4×10^5 cells/well/2 mL) were plated onto 6 well culture plates and allowed to grow overnight. […] After 12 h, both the attached and detached cells were collected by trypsinization, washed with PBS, and resuspended in Dulbecco's PBS (D-PBS) containing Ca^2+ and Mg^2+, glucose, and sodium pyruvate. The cells were then incubated with 10 μM (final concentration) ThiolTracker Violet for 30 min at 37° C. The cells were then washed with D-PBS, resuspended in buffer, and immediately analyzed on a flow cytometer with 405 nm excitation and 525 nm emission filters. The ThiolTracker Violet stain is a highly thiol reactive fluorescent probe and can be utilized in effective detection of intracellular GSH by quantitative detection modalities such as flow cytometry.

[4] = test system: mitochondrial respiration of A2780/CP70 cells; experiment: MitoStress test, Seahorse XF24 (OCR); type: cell-based, human; settings: 1 μM, 24 h
Excerpt: Prior to the assay, XF sensor cartridges were hydrated. […] The parameters calculated included: basal respiration (baseline respiration minus antimycin-A post injection respiration), ATP turnover (baseline respiration minus oligomycin post injection respiration), maximal respiratory capacity (FCCP stimulated respiration minus antimycin-A post injection respiration) and reserve respiratory capacity (FCCP stimulated respiration minus baseline respiration).

[5] = Cyclic voltammetry, Pt(IV)/Pt(II) reduction potential; type: physicochemical; settings: 0.1 M KCl
Method: Redox potential of platinum (IV) prodrugs play important roles in regulating efficacy. The disclosed Pt(IV) prodrugs can be activated selectively by intracellular reduction, preferably at the tumor sites to reduce side effects. Redox potential is a measure of the ability of Pt(IV) compounds to form the active platinum (II) species. Electrochemical measurements on Platin-B were carried out in dimethylformamide (DMF)-phosphate buffered saline (PBS) at pH 6.0 and 7.4. Specifically, a conventional three-electrode set-up comprising a glassy carbon working electrode, platinum wire auxiliary electrode, and Ag/AgCl (3M KCl) reference electrode was used for electrochemical measurements. The electrochemical data were uncorrected for junction potentials. KCl was used as a supporting electrolyte. Platin-B (2 mM) solutions were prepared in 40% DMF phosphate buffered saline (PBS) of pH 6.0 and 7.4 with 0.1 M KCl and voltammograms were recorded at different scan rates.

[6] = test system: GST enzyme; experiment: GST enzymatic substrate competitive assay / cellular GST activity assay; type: biochemical; settings: 50 or 100 μM, in buffer or A2780/CP70 cell lysates
Method: GST enzyme modulates GSH to attack on labile electrophilic halide containing molecules in cellular detoxification processes. […] GST enzymatic activity was evaluated by following the formation of GSH and 1-chloro-2,4-dinitrobenzene (CDNB) adduct.
This assay was performed according to the instruction given by the manufacturer (GST activity assay kit ab65326). AU the standard solutions were prepared as per the instruction. Samples were prepared in a total 50 μL volume with GST assay buffer, including a negative control with 50 μL of GST assay buffer only and a positive control (10 μL of GST positive control diluted to 1:50) and 40 μL of GST assay buffer only. Sample wells contained 10 μL of GST enzyme diluted to 1:50 and remaining of GST assay buffer. To each well, 5 μL GSH was added. 50 μL of substrate mix containing GST substrate CDNB (5 μL) was prepared. […] Then, 50 μL of substrate mix was added to each well including controls. The plate was stirred carefully to initiate the reaction and absorbance values were recorded once every minute at 340 nm using a plate reader to obtain 20 data points. GST activity was calculated through the kinetic plot obtained from the time (min) vs. optical density (OD340 nm) using the formula GST activity=ΔA340 min^−1/0.002777 μM·D/A, where D is the enzyme sample dilution factor and A is the enzyme sample volume added to each well. […]

[7] = test system: A2780/CP70 cells; experiment: Apoptosis detection by Annexin V-PI assay; type: cell-based, human; settings: 50 μM, 12 h
Method: Enhanced activity of Platin-B in A2780/CP70 cells was further confirmed by Annexin-V-propidium iodide (PI) apoptosis-necrosis assay. […] The cells were trypsinized, repeatedly washed collecting the supernatants, and centrifuged at 754×g for 3 min, and the supernatants were collected. Cell density was determined and cells were resuspended in 1× annexinV-binding buffer to 1×10^6 cells/mL preparing a sufficient volume to have 100 μL per assay. To 100 μL of cell suspension, 5 μL ALEXA FLUOR™ 488 annexin V and 1 μL of 100 μg/mL PI working solution were added, incubated for 15 min at room temperature. After the incubation period, 400 μL of 1× annexin-binding buffer was added to each sample, samples were gently mixed keeping the samples on ice, and the samples were analyzed on the flow cytometer immediately.

[8] = test system: citrate synthase activity in A2780/CP70 cells; experiment: Citrate synthase activity assay; type: cell-based, human; settings: 1 μM, 24 h
Method: Citrate synthase activity assay was performed by following the instruction given in MitoCheck Citrate Synthase Activity assay kit (Cayman item no. 701040). Briefly, A2780/CP70 cells were seeded at a density of 1.2×10^6 cells/7 mL in 25 cm^2 cell culture flask and grown overnight. […] The cells were then scraped in presence of fresh media and centrifuged to obtain the cell pellet. The resultant pellet was washed 2 times with 1×PBS and solubilized in 200 μL extraction buffer. This cell suspension was incubated on ice for 20 min followed by centrifugation at 16000×g for 20 minutes at 4° C. The supernatant was collected and used for measuring the citrate synthase activity after 1:200 dilutions. Protein concentration in the samples was measured using BCA assay. […] Finally 20 μL of the substrate oxaloacetate from tube B was added to each well and absorbance was recorded immediately at 412 nm (50 seconds interval for 30 min at room temperature). The citrate synthase activity was calculated through the kinetic plot obtained from the time (min) vs. optical density (OD=412 nm) using the formula: CS Activity=(ΔA412 min−1/5.712 mM−×0.1 mL/0.03 mL)×sample dilution nmoles/min/mL. […]

## O=C(O)CCCCCBr [6-BH, 6-bromohexanoic acid]
[1]; Homo sapiens
  IC50: > 100 µM
[2]; Homo sapiens, PC-3, 72 h
  IC50: > 100 µM

## N.N.[Cl][Pt][Cl] [Cisplatin, cis-diamminedichloridoplatinum(II), reference compound]
[1]
  IC50: 14.7 ± 0.9 µM
[3]
  effect on intracellular GSH levels: minimal effect
[4]
  effect on mitochondrial respiration (OCR): did not demonstrate such activities
[2]; 72 h
  IC50: 14.4 ± 1.6 µM

## [NH2][Pt]([NH2])([Cl])([Cl])([O]C(=O)CCCCCBr)[O]C(=O)CCCCCBr [Platin-B]
[5]; pH 6.0, 40% DMF-PBS
  Pt(IV)/Pt(II) couple reduction potential: ~−0.187 V vs. normal hydrogen electrode (NHE)
[5]; pH 7.4, 40% DMF-PBS
  Pt(IV)/Pt(II) couple reduction potential: ~−0.217 V vs. normal hydrogen electrode (NHE)
[3]
  effect on intracellular GSH levels: enhanced ability to reduce GSH levels
[4]
  effect on mitochondrial respiration (OCR): inhibited mitochondrial respiration significantly
[6]
  GSH conjugation catalyzed by GST: more efficient
[7]
  sensitivity of resistant cells (Annexin V-PI apoptosis-necrosis): high degree of sensitivity
[8]
  mitochondrial content by citrate synthase activity: lower mitochondrial content
